Experimental findings from patent US20250243488A1, “METHODS OF MODULATING PROGRANULIN EXPRESSION USING ANTISENSE OLIGONUCLEOTIDES TARGETING REGULATORY RNAS” (Camp4 Therapeutics Corporation, priority 2022, published 2025) are described below.

The test system of the series is GRN mRNA. The series can be described thus: GRN mRNA qPCR in SK-N-AS cells transfected with ASOs. In kind it is cell-based, human. The settings on record: SK-N-AS. The method, then: The best ASOs based on increased GRN mRNA fold-change were selected for further characterization in dose titration studies. Briefly, human neuroblastoma SK-N-AS cells were transfected with 20 to 160 nM of ASOs CO-3423, CO-3431, CO-3463, and CO-3503. A steric non-targeting control ASO (sNTC) was used as a control. Cells were collected for mRNA analysis after 48 hours and GRN mRNA quantified by qPCR. Housekeeping genes for normalization were GAPDH and PPIA, and mRNA fold change (FC) was normalized to sNTC.
36 additional ASOs were designed with different modifications and base walking around selected ASOs. The effect of increasing doses of these ASOs was assessed in the human neuroblastoma cell line SK-N-AS following transfection. Relative GRN mRNA levels in SK-N-AS cells after treatment was assessed 48-hours post-transfection, and data from exemplary ASOs is shown in FIGS. 5A and 5B.
Additional chemical modifications, including LNA, modifications were made to CO-3423. SK-N-AS cells were transfected with increasing concentrations of the LNA/PS modified ASOs and GRN mRNA quantified by qPCR. ASOs including different LNA modifications of CO-3423 had similar efficacy (i.e, similar increased GRN mRNA expression). GRN mRNA was normalized to the average fold-change of cells treated with two steric non-targeting control ASOs (CO-3772 and CO-1589 (sNTC1)).
The effect of ASO length on GRN gene expression modulation was also investigated. SK-N-AS cells were transfected with increasing concentrations of the longer ASOs and GRN mRNA quantified by qPCR. Increasing the length of CO-3423 increased the potency of the ASO, as shown in Table 4. mRNA was normalized to the average fold change of cells treated with two steric non-targeting control ASOs (CO-3772 and CO-1589 (sNTC1)).
To determine whether variations in the PO/PS internucleotide bond linkages impacted the ability of CO-3423 and CO-3431 to modulate gene expression, several modified ASOs based on these parent ASOs were prepared. SK-N-AS cells were transfected with increasing concentrations of the mixed PO/PS bond ASOs described in Tables 5 and 6, and GRN mRNA quantified by qPCR.
GRN mRNA fold-change after treatment with mixed PO/PS bond versions of CO-3423 is shown in Table 5. mRNA was normalized to the average fold change of cells treated with steric nontargeting controls (CO-3772, CO-1589 (sNTC1), and CO-1929 (sNTC3)).
GRN mRNA fold-change after treatment with mixed PO/PS bond versions of CO-3431 is shown in Table 6. mRNA was normalized as described above.
To further assess the effect of additional modifications on the ability of CO-3423 parent ASO to modulate GRN gene expression, additional LNA tiling and PO bond modifications were incorporated to CO-3423. SK-N-AS cells were transfected with increasing concentrations of the modified ASOs and GRN mRNA quantified by qPCR. CO-3423 was used for comparison. GRN mRNA was normalized to the average fold-change of cells treated with a steric non-targeting control ASO, CO-1589 (sNTC1).
To further assess the effect of modifications on the ability of CO-3463 parent ASO to modulate GRN gene expression, ASOs based on this ASOS incorporating additional LNA modifications were prepared and compared to […]. SK-N-AS cells were transfected with increasing concentrations of the ASOs and GRN mRNA quantified by qPCR. GRN mRNA was normalized to the average fold-change of cells treated with a steric non-targeting control ASO, CO-1589 (sNTC1).
68 additional ASOs were designed to target intergenic enhancers (eRNA). 48 hours post-transfection, the cells were collected for GRN mRNA analysis using qPCR. CO-1589, a steric nontargeting control ASO, was used as a control. GRN mRNA was normalized to cells treated with CO-1589.
The best hits from these ASOs were tested in a dose escalation study. Cells were incubated for 48 hours. Subsequently, the cells were collected for mRNA quantification via RT-qPCR. […]
For orientation: In qPCR the cycle at which signal appears reflects the starting amount.

[1] abbreviates: Table 4, normalized to CO-3772 and CO-1589 (sNTC1).
[2] abbreviates: Table 4, 120 nM, normalized to CO-3772 and CO-1589 (sNTC1).
The mark [3] stands for this setting: Table 10, 48 hours, normalized to CO-1589.
The mark [4] stands for this setting: Table 3, normalized to CO-3772 and CO-1589 (sNTC1).
The mark [5] stands for this setting: Table 3, 120 nM, normalized to CO-3772 and CO-1589 (sNTC1).
The mark [6] stands for this setting: Table 13, normalized to CO-1589.
Setting [7] is: Table 13, 120 nM, normalized to CO-1589.
[8] abbreviates: Table 7, normalized to CO-1589 (sNTC1).
[9] abbreviates: Table 5, normalized to CO-3772, CO-1589 and CO-1929.
Where [10] appears, read: Table 6, normalized to CO-3772, CO-1589 and CO-1929.

Oligonucleotides are written 5' to 3', each unit as a sugar letter and its base; * is a phosphorothioate linkage, no mark a phosphodiester; rarer units and linkages stand in square brackets, end groups in braces. Plain capitals give the bases only. e = 2'-O-(2-methoxyethyl) (MOE); l = locked nucleic acid (LNA); [5mC] = 5-methylcytosine; d = 2'-deoxy (DNA)

On to “CO-4124: GRN paRNA-targeting ASO; longer ASO related to CO-3423 (antisense eG*eA*e[5mC]*eT*eT*eG*eG*eG*eA*eG*eT*eG*eG*eT*eG*eA*e[5mC]*eT*eG*eA)”, for which, under setting [1], the “30 nM FC (GRN mRNA)” value is recorded as 1.2 FC and the “60 nM FC (GRN mRNA)” value was 1.7 FC. For the same substance, under setting [2], the “120 nM FC (GRN mRNA)” value worked out at 1.7 FC. Where the note is “Table 9, 120 nM, 48 hours post-transfection, normalized to CO-1589”, the “hGRN mRNA FC” value came out at 1.3 FC. Moreover, the “3.75 nM FC (GRN mRNA)” value (Table 10, 3.75 nM, 48 hours, normalized to CO-1589) came out at 1.0 FC. Also, under setting [3], the “7.5 nM FC (GRN mRNA)” value came to 1.0 FC, the “30 nM FC (GRN mRNA)” value is listed as 1.2 FC and the “60 nM FC (GRN mRNA)” value is recorded as 1.4 FC. The “15 nM FC (GRN mRNA)” value (Table 10, 15 nM, 48 hours, normalized to CO-1589) is 1.0 FC. The “120 nM FC (GRN mRNA)” value (Table 10, 120 nM, 48 hours, normalized to CO-1589) is 1.9 FC.
Turning to “CO-4353: LNA/PS modified ASO based on CO-3423 (antisense eG*eG*eA*e[5mC]*eT*lT*dG*dG*lG*dA*dG*lT*dG*dG*lT*eG*eA*e[5mC]*eT*eG)”, under setting [4], the “30 nM FC (GRN mRNA)” value is on record as 1.4 FC and the “60 nM FC (GRN mRNA)” value came out at 1.4 FC. Moreover, the “120 nM FC (GRN mRNA)” value under setting [5] is given as 1.8 FC.
With “CO-4354: LNA/PS modified ASO based on CO-3423 (antisense eG*eG*eA*l[5mC]*eT*lT*eG*lG*eG*lA*eG*lT*eG*lG*eT*lG*eA*l[5mC]*eT*eG)”, under setting [4], the “30 nM FC (GRN mRNA)” value was found to be 1.6 FC and the “60 nM FC (GRN mRNA)” value is reported as 1.9 FC. The “120 nM FC (GRN mRNA)” value under setting [5] amounted to 1.9 FC.
“CO-4355: LNA/PS modified ASO based on CO-3423 (antisense eG*eG*lA*e[5mC]*lT*eT*lG*eG*lG*eA*lG*eT*lG*eG*lT*eG*lA*e[5mC]*eT*eG)”: under setting [4], the “30 nM FC (GRN mRNA)” value is 1.6 FC and the “60 nM FC (GRN mRNA)” value amounted to 1.8 FC. Moreover, the “120 nM FC (GRN mRNA)” value under setting [5] turned out to be 1.9 FC.
As for “CO-4356: LNA/PS modified ASO based on CO-3423 (antisense eG*eG*lA*e[5mC]*eT*lT*eG*eG*lG*eA*eG*lT*eG*eG*lT*eG*eA*l[5mC]*eT*eG)”, under setting [4], the “30 nM FC (GRN mRNA)” value amounted to 1.6 FC and the “60 nM FC (GRN mRNA)” value was found to be 1.8 FC. The “120 nM FC (GRN mRNA)” value under setting [5] was found to be 2.2 FC.
Taken in the same sequence, the figures for “CO-4357: LNA/PS modified ASO based on CO-3423 (antisense eG*eG*eA*e[5mC]*lT*eT*eG*eG*lG*eA*eG*eT*lG*eG*eT*eG*lA*e[5mC]*eT*eG)” were 1.5 FC, 1.7 FC and 2.4 FC.
In the case of “CO-4358: LNA/PS modified ASO based on CO-3423 (antisense eG*eG*eA*l[5mC]*eT*eT*eG*lG*eG*eA*eG*lT*eG*eG*eT*lG*eA*e[5mC]*eT*eG)”, under setting [4], the “30 nM FC (GRN mRNA)” value worked out at 1.5 FC and the “60 nM FC (GRN mRNA)” value is on record as 1.9 FC. In addition, under setting [5], the “120 nM FC (GRN mRNA)” value turned out to be 2.0 FC.
Regarding “CO-4360: LNA/PS modified ASO based on CO-3423 (antisense eG*eG*eA*e[5mC]*lT*eT*eG*eG*eG*lA*eG*eT*eG*eG*lT*eG*eA*e[5mC]*eT*eG)”, under setting [4], the “30 nM FC (GRN mRNA)” value came to 1.4 FC and the “60 nM FC (GRN mRNA)” value is 1.8 FC. The “120 nM FC (GRN mRNA)” value under setting [5] is given as 2.5 FC.
Consider “CO-4361: longer ASO based on CO-3423 (antisense eG*eA*e[5mC]*eT*eT*dG*dG*dG*dA*dG*dT*dG*dG*dT*dG*eA*e[5mC]*eT*eG*eA)”, for which, under setting [1], the “30 nM FC (GRN mRNA)” value turned out to be 1.1 FC and the “60 nM FC (GRN mRNA)” value was found to be 1.3 FC. Moreover, the “120 nM FC (GRN mRNA)” value under setting [2] was determined as 1.6 FC.
As to “CO-4362: longer ASO based on CO-3423 (antisense eG*eA*e[5mC]*eT*eT*dG*dG*dG*eA*dG*dT*eG*dG*dT*dG*eA*e[5mC]*eT*eG*eA)”, under setting [1], the “30 nM FC (GRN mRNA)” value is given as 1.1 FC and the “60 nM FC (GRN mRNA)” value is given as 1.1 FC. Under setting [2], the “120 nM FC (GRN mRNA)” value is 1.4 FC.
In the case of “CO-4363: longer ASO based on CO-3423 (antisense eG*eG*eA*e[5mC]*eT*eT*eG*eG*eG*eA*eG*eT*eG*eG*eT*eG*eA*e[5mC]*eT*eG*eA)”, the “30 nM FC (GRN mRNA)” value under setting [1] was 1.3 FC and the “30 nM FC (GRN mRNA)” value under setting [6] is 1.6 FC. Further, the “60 nM FC (GRN mRNA)” value runs as follows: under setting [1], 2.2 FC; under setting [6], 1.7 FC. Moreover, the “120 nM FC (GRN mRNA)” value is, setting by setting: under setting [2], 1.8 FC; under setting [7], 1.7 FC.
In the case of “CO-4364: longer ASO based on CO-3423 (antisense eG*eG*eA*e[5mC]*eT*eT*eG*eG*eG*eA*eG*eT*eG*eG*eT*eG*eA*e[5mC]*eT*eG*eA*eA*e[5mC])”, the “30 nM FC (GRN mRNA)” value under setting [1] came out at 1.1 FC, the “30 nM FC (GRN mRNA)” value under setting [8] was found to be 1.7 FC and the “30 nM FC (GRN mRNA)” value under setting [6] was 1.1 FC. Also, the “60 nM FC (GRN mRNA)” value under setting [1] is 1.3 FC, the “60 nM FC (GRN mRNA)” value under setting [8] came to 2.1 FC and the “60 nM FC (GRN mRNA)” value under setting [6] is recorded as 1.5 FC. For the same substance, the “120 nM FC (GRN mRNA)” value is, setting by setting: under setting [2], 1.6 FC; (Table 7, 120 nM, normalized to CO-1589 (sNTC1)) 1.9 FC; under setting [7], 1.6 FC. For the same substance, the “7.5 nM FC (GRN mRNA)” value under setting [8] came to 1.1 FC. For the same substance, the “13 nM FC (GRN mRNA)” value (Table 7, 13 nM, normalized to CO-1589 (sNTC1)) came out at 1.2 FC. Moreover, for the setting “Table 7, 150 nM, normalized to CO-1589 (sNTC1)”, the “150 nM FC (GRN mRNA)” value is reported as 2.3 FC.
Regarding “CO-4453: mixed PO/PS bond version of CO-3423 (antisense eG*eG*eAe[5mC]eT*eT*eG*eG*eG*eA*eG*eT*eG*eG*eT*eGeAe[5mC]*eT*eG)”, under setting [9], the “30 nM FC (GRN mRNA)” value is given as 1.4 FC and the “60 nM FC (GRN mRNA)” value turned out to be 1.9 FC. For the same substance, the “120 nM FC (GRN mRNA)” value (Table 5, 120 nM, normalized to CO-3772, CO-1589 and CO-1929) is listed as 1.9 FC.
With “CO-4455: mixed PO/PS bond version of CO-3431 (antisense eA*eT*eTeGe[5mC]*eA*eG*eT*eG*eA*e[5mC]*eG*e[5mC]*e[5mC]*e[5mC]*e[5mC]eGeT*eT*eA)”, under setting [10], the “30 nM FC (GRN mRNA)” value is recorded as 0.5 FC and the “60 nM FC (GRN mRNA)” value was 0.4 FC. The “120 nM FC (GRN mRNA)” value (Table 6, 120 nM, normalized to CO-3772, CO-1589 and CO-1929) worked out at 0.4 FC.
